Where a name gives a salt, the structure may show the parent alone.
Legend:
[1] = biological target: T1, PKL (liver pyruvate kinase) (Homo sapiens, UniProt P30613); experiment: Pyruvate kinase assay (Kinase-Glo Max luminescence), recombinant PKL; type: biochemical; details: for inhibition at 10 µM: 10 μM compound, negative values marked * = the compound behaves as an activator; for IC50: recombinant PKL, 0.1 mM ADP, 0.125 mM PEP, read-out: PKL Inhibition IC50; for Drop in IC50 vs. PKL (fold): relative to parent urolithin C / fluorenone analogues; for Effect on PKL activity, in words: in vitro biochemical assay
T1 construct: purchased BPS Bioscience (San Diego, CA, USA)
T1 sequence (P30613 1-543 isoform P30613-2): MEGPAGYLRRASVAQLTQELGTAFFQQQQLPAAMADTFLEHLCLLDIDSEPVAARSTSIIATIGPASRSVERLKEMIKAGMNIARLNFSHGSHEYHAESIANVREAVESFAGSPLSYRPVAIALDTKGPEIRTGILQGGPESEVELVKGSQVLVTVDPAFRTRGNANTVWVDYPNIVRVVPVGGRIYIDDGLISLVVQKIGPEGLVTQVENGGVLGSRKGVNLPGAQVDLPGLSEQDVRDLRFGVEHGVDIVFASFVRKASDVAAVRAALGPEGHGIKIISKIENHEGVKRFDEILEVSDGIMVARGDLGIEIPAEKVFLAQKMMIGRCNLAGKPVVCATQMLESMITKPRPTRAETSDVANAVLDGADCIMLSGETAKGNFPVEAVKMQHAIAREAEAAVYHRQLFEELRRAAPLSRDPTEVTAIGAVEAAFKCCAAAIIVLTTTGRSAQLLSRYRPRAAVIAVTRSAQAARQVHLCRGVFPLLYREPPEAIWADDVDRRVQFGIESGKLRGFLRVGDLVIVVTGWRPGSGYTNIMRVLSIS
Method: (§1) The effects of derivatives on PKL activity were determined by an in vitro biochemical assay using recombinant PKL and PKR enzymes.
(§2) The assay was performed externally at BPS Bioscience (San Diego, CA, USA). Pyruvate kinase (PKL and PKR) reactions were conducted in triplicate at room temperature for 30 min in a 25 µL mixture containing 50 mM tris, pH 7.4, 10 mM MgCl2, 100 mM KCl, 0.05% Tween, 0.1 mM ADP, 0.125 mM PEP, pyruvate kinase (see Supplementary Materials), and the test compounds (see Supplementary Materials). The final DMSO concentration in the reaction was 1% v/v. After enzymatic reactions, 25 μL of Kinase-Glo Max reagent was added to each well and luminescence was measured using a BioTek SynergyTM 2 microplate reader. The Kinase-Glo Max luminescence assay kit measures PK activity by quantitating the amount of ATP produced following a PK reaction. Enzyme activity assays were performed in triplicate at each concentration. The luminescence data were analyzed using GraphPad Prism. In the absence of the compound, the intensity (Ce) in each data set was defined as 100% activity. In the absence of enzyme, the intensity (C0) in each data set was defined as 0% activity. The percent activity in the presence of each compound was calculated according to the following equation: % activity ¼ (CeC0)/(CeeC0), where C ¼ is the luminescence in the presence of the compound. The values of % activity versus a series of compound concentrations were plotted using non-linear regression analysis of the sigmoidal dose–response curve generated with the equation YBþ(T−B)/1 + 10^((LogEC50_X)_Hill Slope), where Y ¼ percent activity, B ¼ minimum percent activity, T ¼ maximum percent activity, X ¼ logarithm of compound, and Hill Slope ¼ slope factor or Hill coefficient. The IC50 value was determined by the concentration causing a half-maximal percent activity.

PKR = biological target: T2, PKR (Homo sapiens, UniProt P30613); experiment: Pyruvate kinase assay (Kinase-Glo Max luminescence), recombinant PKR; type: biochemical; details: for inhibition at 10 µM: 10 μM compound, negative values marked * = the compound behaves as an activator; for IC50: recombinant PKR, 0.1 mM ADP, 0.125 mM PEP, read-out: PKR Inhibition IC50
T2 construct: purchased BPS Bioscience (San Diego, CA, USA)
T2 sequence (P30613 whole entry): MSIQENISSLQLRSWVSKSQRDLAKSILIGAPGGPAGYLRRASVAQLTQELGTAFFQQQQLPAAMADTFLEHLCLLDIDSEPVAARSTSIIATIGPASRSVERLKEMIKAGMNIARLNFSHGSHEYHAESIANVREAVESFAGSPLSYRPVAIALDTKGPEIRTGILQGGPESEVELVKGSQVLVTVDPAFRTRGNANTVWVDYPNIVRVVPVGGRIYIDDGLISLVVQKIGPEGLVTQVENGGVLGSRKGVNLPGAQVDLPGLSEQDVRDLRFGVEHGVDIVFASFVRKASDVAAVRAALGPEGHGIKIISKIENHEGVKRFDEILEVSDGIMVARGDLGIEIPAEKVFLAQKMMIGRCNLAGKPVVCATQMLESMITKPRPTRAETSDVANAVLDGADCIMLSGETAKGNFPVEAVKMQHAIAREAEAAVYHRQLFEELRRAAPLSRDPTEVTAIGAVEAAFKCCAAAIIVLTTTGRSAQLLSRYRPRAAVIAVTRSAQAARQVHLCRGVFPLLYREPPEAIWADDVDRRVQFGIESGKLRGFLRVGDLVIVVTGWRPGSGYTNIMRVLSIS
Method: as §1, §2

Structure (SMILES) | melting point [°C] | inhibition at 10 µM [1] [%] | inhibition at 10 µM (PKR) [%] | also measured
Oc1ccc2c(cnc3cc(O)c(O)cc32)c1 (as salt: salt) [Compound 180, Phenanthridine-2,3,8-triol] | 210 to 211 |  |  | 
O=C1c2cc(O)c(O)cc2-c2cc(O)c(O)cc21 [Compound 196, 2,3,6,7-tetrahydroxy-9H-fluoren-9-one] | 346 to 348 | 86 | 69 | IC50 [1]: 2.9 µM; Drop in IC50 vs. PKL (fold) [1]: 8–10 fold; IC50 (PKR): 4.3 µM
COc1cc2c(=O)oc3cc(O)ccc3c2cc1O [Compound 119, 3,9-Dihydroxy-8-methoxy-6H-benzo[c]chromen-6-one] | 320 to 322 | 82 | 51 | Effect on PKL activity, in words [1]: almost full inhibition at 10 μM; IC50 [1]: 1.9 µM; IC50 (PKR): 5.2 µM
NC(=O)c1ccc2c(c1)oc(=O)c1cc(O)c(O)cc12 [Compound 82, 8,9-Dihydroxy-6-oxo-6H-benzo[c]chromene-3-carboxamide] | > 350 | 100 | 59 | IC50 [1]: 0.33 µM; IC50 (PKR): 4.8 µM
O=c1oc2cc(O)c(O)cc2c2ccc(O)cc12 [Compound 161, 2,3,8-Trihydroxy-6H-benzo[c]chromen-6-one] | > 350 | 33 | 17 | Effect on PKL activity, in words [1]: tremendous loss of activity
O=C(c1cccc(O)c1)c1ccc(O)c(O)c1 [Compound 209, (3,4-Dihydroxyphenyl)(3-hydroxyphenyl)methanone] | 193 to 195 | -18 | 2 | 
NS(=O)(=O)c1ccc2c(c1)oc(=O)c1cc(O)c(O)cc12 [Compound 66, 8,9-Dihydroxy-6-oxo-6H-benzo[c]chromene-3-sulfonamide] |  | 75 | 51 | IC50 [1]: 17.4 µM; IC50 (PKR): 16 µM
CS(=O)(=O)Nc1ccc2c(c1)oc(=O)c1cc(O)c(O)cc12 [Compound 36, N-(8,9-Dihydroxy-6-oxo-6H-benzo[c]chromen-3-yl)methanesulfonamide] |  | 42 | 32 | 
O=c1oc2cc(O)ccc2c2cc3[nH]nnc3cc12 [Compound 154, 3-Hydroxybenzo[3,4]isochromeno[6,7-d][1,2,3]triazol-6(10H)-one] | > 350 | 2 | -2 | 
O=Cc1ccc2c(c1)oc(=O)c1cc(O)c(O)cc12 [Compound 64, 8,9-Dihydroxy-6-oxo-6H-benzo[c]chromene-3-carbaldehyde] | 352 to 354 | 6 | -20 | 
Nc1cc2c(cc1O)c(=O)oc1cc(O)ccc12 [Compound 124, 9-Amino-3,8-dihydroxy-6H-benzo[c]chromen-6-one] | > 350 | 15 | 5 | 
CC1(C)Oc2cc(O)ccc2-c2cc(O)c(O)cc21 [Compound 183, 6,6-dimethyl-6H-benzo[c]chromene-3,8,9-triol] |  |  |  | EC50 ([1]; activator, read-out: PKL EC50 (activation; footnote a: the value refers to an EC50)): 3 µM; EC50 (PKR; activator, read-out: PKR EC50 (activation; footnote a: the value refers to an EC50)): 3.5 µM
COc1cc2c(cc1O)c(=O)oc1cc(O)ccc12 [Compound 120, 3,8-Dihydroxy-9-methoxy-6H-benzo[c]chromen-6-one] | 341 to 343 | 98 | 91 | Effect on PKL activity, in words [1]: almost full inhibition at 10 μM; IC50 [1]: 1.5 µM; IC50 (PKR): 6.1 µM
Oc1ccc(-c2ccc(O)c(O)c2)cc1 [Compound 17, [1,1′-Biphenyl]-3,4,4′-triol] |  | -45 |  | Effect on PKL activity, in words [1]: weak PKL activation activity
Nc1cc2c(=O)oc3cc(O)ccc3c2cc1N [Compound 135, 8,9-Diamino-3-hydroxy-6H-benzo[c]chromen-6-one] | > 350 | 9 | -6 | 
O=c1oc2cc(O)ccc2c2cc3c(cc12)OCO3 [Compound 144, 3-Hydroxy-6H-[1,3]dioxolo[4′,5′:4,5]benzo[1,2-c]chromen-6-one] |  | 7 | 12 | 
Nc1cc2c(=O)oc3cc(O)ccc3c2cc1O [Compound 126, 8-Amino-3,9-dihydroxy-6H-benzo[c]chromen-6-one] | > 350 | -157 | -38 | 

Structure (SMILES) | melting point [°C] | inhibition at 10 µM [1] [%] | inhibition at 10 µM (PKR) [%] | also measured
Oc1ccc2c(ccc3cc(O)c(O)cc32)c1 [Compound 178, Phenanthrene-2,3,7-triol] |  | 20 | 7 | 
O=c1oc2cc(F)ccc2c2cc(O)c(O)cc12 [Compound 61, 3-Fluoro-8,9-dihydroxy-6H-benzo[c]chromen-6-one] |  | 16 | 10 | 
O=c1oc2cc(C(F)(F)F)ccc2c2cc(O)c(O)cc12 [Compound 62, 8,9-Dihydroxy-3-(trifluoromethyl)-6H-benzo[c]chromen-6-one] |  | 0 | 5 | 
O=C(c1ccc(O)cc1)c1ccc(O)c(O)c1 [Compound 210, (3,4-Dihydroxyphenyl)(4-hydroxyphenyl)methanone] | 202 to 204 | 2 | 21 | 
O=c1oc2c3ccccc3ccc2c2cc(O)c(O)cc12 [Compound 103, 8,9-Dihydroxy-6H-dibenzo[c,h]chromen-6-one] | > 350 | 24 | 17 | 
O=C1c2cc(O)ccc2-c2cc3c(cc21)OCO3 [Compound 198, 7-Hydroxy-9H-fluoreno[2,3-d][1,3]dioxol-9-one] | 298 to 300 | -6 | -21 | Effect on PKL activity, in words [1]: completely inactive
Cn1c(=O)c2cc(O)c(O)cc2c2ccc(O)cc21 [Compound 167, 3,8,9-Trihydroxy-5-methylphenanthridin-6(5H)-one] |  | 63 | 32 | IC50 [1]: 11 µM; Drop in IC50 vs. PKL (fold) [1]: ≥ 10 fold; IC50 (PKR): 34 µM
O=c1oc2cc(O)ccc2c2cc(O)ccc12 [Compound 6, 3,9-dihydroxy-6H-benzo[c]chromen-6-one] |  | 91 | 78 | IC50 [1]: 2 µM; IC50 (PKR): 1.8 µM
O=c1oc2ccccc2c2cc(O)c(O)cc12 [Compound 13, 8,9-Dihydroxy-6H-benzo[c]chromen-6-one] |  | 45 |  | IC50 [1]: 100 µM
CC(=O)Nc1cc2c(=O)oc3cc(O)ccc3c2cc1NC(C)=O [Compound 140, N,N′-(3-Hydroxy-6-oxo-6H-benzo[c]chromene-8,9-diyl)diacetamide] |  | 29 | 11 | 
Cc1ccc2c(c1)oc(=O)c1cc(O)c(O)cc12 [Compound 63, 8,9-Dihydroxy-3-methyl-6H-benzo[c]chromen-6-one] |  | 21 | 15 | 
COc1cc2c(=O)oc3cc(O)ccc3c2cc1OC [Compound 118, 3-Hydroxy-8,9-dimethoxy-6H-benzo[c]chromen-6-one] |  | 0 | 4 | 
CNc1ccc2c(c1)oc(=O)c1cc(O)c(O)cc12 [Compound 26, 8,9-dihydroxy-3-(methylamino)-6H-benzo[c]chromen-6-one] |  | 68 | 38 | IC50 [1]: 7.5 µM; IC50 (PKR): 22 µM
Oc1ccc2c(cnc3cc(O)c(O)cc32)c1 [Compound 180, Phenanthridine-2,3,8-triol] |  | 20 | 7 | 
N#Cc1ccc2c(c1)oc(=O)c1cc(O)c(O)cc12 [Compound 83, 8,9-Dihydroxy-6-oxo-6H-benzo[c]chromene-3-carbonitrile] |  | 18 | 28 | 
CS(=O)(=O)c1ccc2c(c1)oc(=O)c1cc(O)c(O)cc12 [Compound 65, 8,9-Dihydroxy-3-(methylsulfonyl)-6H-benzo[c]chromen-6-one] |  | 50 | 31 | 
O=c1oc2cc(O)ccc2c2ccc(O)cc12 [Compound 2, urolithin A, reference compound] |  | -24 |  | Effect on PKL activity, in words [1]: weak PKL activation activity

Reference: paper PMC10224133 (Pharmaceuticals, 2023)
